# Test system: Arom^hum mice
# Test: Prevention of inguinal hernia, LAMT fibrosis and atrophy in Arom^hum mice (treatment started before hernia formation)
# Format: in vivo, mouse
# Details: Arom^hum mice
# Excerpt: Increased LAMT estrogen levels are associated with LAMT fibrosis, myocyte atrophy, and inguinal hernia development; aromatase inhibitor prevents hernia formation in Arom^hum mice. […] None of the WT littermates (n=32) developed hernia.
# In the mouse, the scrotum is connected to the peritoneal cavity with a narrow funicular (or inguinal) canal, whose walls are composed of LAMT. Structurally normal LAMT is essential to maintain the tone of this canal and prevents herniation of bowel. LAMT is the critical site affected by E2 excess (FIGS. 2, 5, 6). As in many other tissues, stromal cells intimately interact with parenchymal cells (myocytes) in UAMT and LAMT (FIG. 6). […] Administration of the aromatase inhibitor letrozole started at 3 weeks of age for 12 weeks prevented LAMT atrophy, fibrosis and herniation in all (10 out of 10) treated Arom^hum mice (FIG. 6B).
# Experiment 1a1: Does aromatase inhibition arrest or reverse LAMT fibrosis, atrophy, and hernia in male Arom^hum mice? […] The hernias will be classified as mild, early moderate, late moderate and severe if the bulging area through muscle tissue is <100 mm^2 (˜4 weeks), 100-150 mm^2 (˜6 weeks), 150-200 mm^2 (˜8 weeks), or >200 mm^2 (˜10 weeks), respectively. First, we will treat Arom^hum mice showing mild hernias with letrozole (SC 10 μg/day release pellet) or vehicle starting at 4 weeks of age for 12 weeks^63. We will assess whether muscle fibrosis, atrophy, and hernia can be arrested or reversed in mildly (<100 mm^2) affected animals. If early letrozole treatment can arrest mild muscle fibrosis, we will delay the initiation of treatment to 6, 8, or 10 weeks of age to determine whether letrozole can arrest or reverse the growth of the early moderate (6 weeks), late moderate (8 weeks) or severe hernia (10 weeks). Hernia development will be monitored by visual inspection twice a week for 12 weeks after letrozole administration and will be reported as hernia incidence using Kaplan-Meier curve analysis. The length and width of the observed hernias will be measured to calculate the surface area (length×width). After completion of the treatment, the mice will be dissected, and LAMT, UAMT (control), and serum will be collected. One hundred mg of frozen muscle tissue will be obtained to measure tissue estrogen levels. Circulating and tissue (LAMT and UAMT) E2 levels will be measured at the IIT Research Institute by Dr. Miguel Muzzio (see letter) using LC-MS^2. We will use immunoblotting and IHC to determine ERα expression in LAMT and UAMT.
# This finding was published in PNAS in Oct., 2018. […] We treated Arom^hum mice with fulvestrant for 12 weeks starting at the age of 4 weeks (before hernia formation). As expected, placebo-treated Arom^hum mice developed scrotal hernias.
smiles,measurement,setting,value
C[C@]12CC[C@@H]3c4ccc(O)cc4C[C@@H](CCCCCCCCC[S+]([O-])CCCC(F)(F)C(F)(F)F)[C@H]3[C@@H]1CC[C@@H]2O (stereo partly drawn) [fulvestrant],"development of LAMT fibrosis (fibrotic area, Masson's trichrome)","4-week-old mice treated for 12 weeks, FIGS. 15C and D",rescues lower abdominal muscle tissue (LAMT) fibrosis and myocyte atrophy
same,myofiber atrophy (myofiber cross-sectional area),"4-week-old mice treated for 12 weeks, FIGS. 15C and E",completely prevented myofiber atrophy
same,hernia formation,fulvestrant for 12 weeks starting at the age of 4 weeks (before hernia formation),completely prevented by fulvestrant administration

# Source: US20240238310A1, “MODULATION OF SEX STEROID HORMONE PRODUCTION AND ACTIVITY FOR TREATING AND PREVENTING HERNIAS” (Northwestern University, priority 2020, published 2024)
